Data set [1] deals with histone H3 acetylation, acetyl-α-tubulin. Nature of the data set: Histone H3 / α-tubulin acetylation western blot in PANC cells. It counts as cell-based, Human. On the procedure: Class I HDAC expression during pancreatic tumorigenesis was next examined. Briefly different concentration of Compound I were added and incubated for 24 h. […] Inhibition of Class I HDACs is associated with the upregulation of histone H3 acetylation and p21 mRNA and protein expression which have associated with the anti-proliferative activity. It has also been reported that HDAC6 functions as a α-tubulin deacetylase, modulating tubulin stability. Because α-tubulin and histone H3 are mutual downstream targets of HDACs, the relationship between protein expression and function of molecules was further examined. The effects of Compound I on histone H3 acetylation in PANC cells using western blot analysis was studied.

The nature of data set [2]: Acute oral toxicity (OECD 423). It counts as in vivo. The procedure:
Experimental Design: The assay of acute toxicity was performed according to the Organization for Economic Cooperation and Development (OECD) guideline 423 (OECD, 2001a). A total of 60 mice weighing between 27 and 37 g were randomly divided into six experimental groups of 10 mice each (5 males and 5 females per group). After fasting overnight Compound I was administered to each treatment group at single doses of 200, 500 1000, 2000, mg/kg, respectively, by oral gavage. The control groups were treated with the same volume of distilled water. After dosing, all animals were observed individually for mortality and changes in general behavior during the first 30 min, then at 2, 4, 6, 10 and 24 h following treatment. Symptoms of toxicity such as hypo-activity, piloerection, breathing difficulty, tremors, and convulsion were evaluated after administration of the various doses. The LD 50 value was determined according to the method described by the OECD Guidelines 423 (OECD, 2001a). During the remaining experimental period, the animal observation was performed at least once per day for the post-dosing period of 14 days. Body weights were measured at the initiation of treatment, and on days 4, 7, 11 and 14 after administration. On the 14th day, the mice were sacrificed under anesthesia, and vital organs (heart, kidneys, lung, spleen and liver) were removed for macroscopic examination.

Another data set relates to Vero cells. The conditions noted are these: any of the concentrations tested.
Another data set in a line: in vitro. The following applies: African green monkey.

Some results are limits rather than exact numbers.

Take `COc1cc(/C=C/C(=O)/C=C/C=C/c2cc(OC)c(O)c(OC)c2)cc(OC)c1` [Compound I]: the acetyl-α-tubulin result in data set [1] is “no acetyl-α-tubulin was detected”. Also, the “histone H3 acetylation” value in data set [1] (compared with control) is reported as “stronger hyperacetylation”. Also, the treatment related death result in data set [2] (acute, 14-day observation, both sexes) is “no treatment related death was observed”. In addition, in data set [2] (both sexes, mouse, in vivo, oral, read-out: median lethal dose (LD50)), the LD50 at 14 days was > 2000 mg/kg. Besides, in data set [2] (both, mouse, in vivo, 14 days), the GHS classification result is reported as “Category 5”. Besides, the Toxicity entry in the data set with Vero cells is listed as “no toxicity was observed”. The CC50 in “in vitro” is > 15 µM.

The record behind these values is patent US20230270692A1, “COMPOUNDS FOR CHRONIC DISORDERS” (Pillai Universal LLC, priority 2020, published 2023).
